No end group written: not given here.
Tested on: Chicken Embryo
Test: Chicken embryo safety test (HET-CAM, SN/T 2329-2009), irritation score method
Conditions: dose up to 500 ppm

Sequence: ESETRILLQ [EQ-9, ESETRILLQ]
- Irritation Classification (HET-CAM): non-irritant
- irritation score (IS) (HET-CAM): 0.35
- safety issue (FIG. 1): no safety issue

Source: patent EP4400508A1, “ACTIVE PEPTIDE AND USE THEREOF” (Harvest Biotech Co., Ltd, priority 2021, dated 2024)
